Assay results published in PubChem BioAssay (NCI).
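A five-concentration, 48-hour dose response in 96-well plates underlies each endpoint, interpolated linearly between surrounding concentrations. Here, GI50 denotes the concentration required for 50% inhibition of growth. TGI: concentration producing complete growth inhibition.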

Experiments:
Assay in all cases: NCI-60 cell line screen, 48 h
[1] = tested on: LOX IMVI melanoma
[2] = tested on: K-562 leukemia
[3] = tested on: HL-60(TB) leukemia
[4] = tested on: SF-539 CNS
[5] = tested on: OVCAR-5 ovarian
[6] = tested on: EKVX NSCLC
[7] = tested on: HCC-2998 colon
[8] = tested on: KM12 colon
[9] = tested on: U251 CNS
[10] = tested on: DU-145 prostate

Row | SMILES | TGI [1] [µM] | TGI [2] [µM] | TGI [3] [µM] | TGI [4] [µM] | TGI [5] [µM] | TGI [6] [µM] | TGI [7] [µM] | TGI [8] [µM] | TGI [9] [µM] | TGI [10] [µM] | GI50 [1] [µM] | GI50 [2] [µM] | GI50 [3] [µM] | GI50 [4] [µM] | GI50 [5] [µM] | GI50 [6] [µM] | GI50 [7] [µM] | GI50 [8] [µM] | GI50 [9] [µM] | GI50 [10] [µM]
1 | O=C1NC(=O)C2=C1CCC2O (stereo not given) | > 100 | > 100 | > 100 | > 100 | > 100 | > 100 | > 100 | > 100 | > 100 | > 100 |  |  |  |  |  |  |  |  |  | 
2 | O=C1C(Cl)=C(Oc2ccccc2)C(=O)c2ccccc21 | 22.7 | > 100 | 17.7 | 14.2 | 31.7 | 24 | 15.9 | 8.84 | 13.4 | 31 | 9.98 | 3.17 | 2.54 | 5.96 | 16.7 | 4.77 | 4.28 | 2.84 | 3.57 | 16.2
3 | Cc1cc(S(=O)(=O)Nc2nnc(-c3ccco3)c(-c3ccco3)n2)c(SCc2ccccc2)cc1Cl | 45.4 | > 100 | 83.1 | 41.1 | 49.8 | 37.6 | 36.8 | > 100 | 62.2 | 32.5 | 24.7 | 28.2 | 24.8 | 19.9 | 25.6 | 17.5 | 20.4 | 27.8 | 25.7 | 17
4 | CCNCCNc1cc(-c2ccc(Cl)cc2)c(C#N)c2nc3ccccc3n12 | 2.93 | 3.06 | 3.65 | 3.22 | 3.67 | 3.31 | 3.4 | 3.24 | 3.27 | 3.09 | 1.52 | 1.29 | 1.65 | 1.72 | 1.91 | 1.6 | 1.84 | 1.73 | 1.7 | 1.71
5 | C=C1C(=O)O[C@H]2[C@H]1CC/C(COC(=O)/C=C/c1cccnc1)=C\CC[C@@]1(C)O[C@@H]21 | 2.93 | 6.13 | 3.7 | 2.97 | 5.94 | 14.3 | 17.1 | 13.2 | 18.3 | 3.01 | 1.55 | 1.04 | 0.741 | 1.5 | 2.11 | 3.28 | 5.02 | 3.47 | 5.74 | 1.39
6 | O=P(Oc1ccccc1)(Oc1ccccc1)C(O)c1ccccc1 (stereo not given) | > 100 | > 100 | > 100 | > 100 | > 100 | > 100 | > 100 | > 100 | > 100 | > 100 | > 100 | 46.8 | 60.7 | > 100 | > 100 | 26.5 | > 100 | 51 | 48.9 | > 100
7 | Cc1c(C(=O)CCl)c(=O)n(-c2ccccc2)n1C | 14.3 | 17.3 | 13.5 | 22.9 | 27.1 | 29.1 | 26.6 | 22.6 | 26.2 | 5.36 | 3.27 | 2.76 | 3.8 | 7.19 | 13.3 | 12.4 | 12.9 | 10.4 | 11.4 | 2.22
8 | O=C(CCl)Nc1ccccc1SCc1cc(Cl)cc2c1OCOC2 | 5.1 | 25.1 | 4.31 | 28.7 | 27.7 |  | 31.5 | 27.4 | 31.3 | 29.4 | 2.16 | 3.35 | 2.15 | 15.3 | 13.5 |  | 16.6 | 13.8 | 16.1 | 15.7
9 | O=C1c2cccnc2-c2nc(-c3ccccn3)cc3c2c1nc1ccccc13 | 1.52 | 0.632 |  | 0.295 | 3.43 | 2.1 | 1.48 | 3.17 | 0.306 | 0.57 | 0.287 | 0.136 | 0.066 | 0.0926 | 0.745 | 0.62 | 0.412 | 0.426 | 0.149 | 0.156
10 | CC(C)SC1SCC2C(=O)N(C)C3(CC3C)C(=O)OCC(NC(=O)c3nc4ccccc4cc3O)C(=O)NC(C)C(=O)N(C)C1C(=O)N(C)C1(CC1C)C(=O)OCC(NC(=O)c1nc3ccccc3cc1O)C(=O)NC(C)C(=O)N2C (stereo not given) | < 0.0001 | < 0.0001 | < 0.0001 | < 0.0001 |  | 0.0759 | < 0.0001 | < 0.0001 | < 0.0001 | > 100 |  |  |  |  |  |  |  |  |  | 
11 | OCc1ccc(N(Cc2ccc(F)cc2)C2CCC2)cc1Cl | 29.3 | 15 | 25.5 | 31.3 | 0.495 |  | 22.7 | 28.7 | 16.2 | 28 | 15.1 | 1.01 | 5.7 | 16.7 | 0.106 |  | 5.42 | 14.5 | 1.02 | 14.2
12 | COc1ccc(-n2c(-c3ccc(NC(=O)CCCl)cc3)nnc2-c2cc(OC)c(OC)c(OC)c2)cc1 | > 14.3 |  | 6.02 | 10.3 | > 14.3 | > 14.3 | 7.07 | 7.6 | 13.5 | 8.67 | 4.28 |  | 1.9 | 3.04 | 6.85 | 3 | 3.05 | 2.35 | 3.69 | 2.77
13 | CCN(Cc1ccc(F)cc1F)c1ccc(CO)c(Cl)c1 | 29 | > 100 | 38.1 | 31.7 | 0.317 |  | 20.4 | 32.9 | 18.8 | > 70.9 | 14.4 | 1.65 | 8.47 | 16.1 | 0.0685 |  | 4.26 | 16.6 | 0.641 | 20.1
